The numbers were not newly measured in patent US7060695B2, “Method to prevent vision loss” (QLT, Inc., priority 2001, dated 2006), which cites them from elsewhere.

The subject of the series is CNV. The following applies: approved protocol, re-treatment as frequently as every three months if CNV leakage.

Take verteporfin: the closure of neovasculature entry is listed as “closes neovasculature” and the “loss of visual acuity compared to placebo controls” value is “prevents loss of visual acuity compared to placebo controls”.
